US12492182B2, “Hydroxytriazine compounds and pharmaceutical use thereof” (Japan Tobacco Inc., priority 2015, dated 2025)
Read-outs that look alike come from different tables or passages of the source.

Key:
A549 cell = assay: Evaluation of PGE2 production inhibitory action using A549 cell (IL-1β stimulated); format: cell-based, human
Summary of the method: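 A549 cells (human lung cancer) in F-12K with 2% FBS were preincubated with test article for 30 min, then stimulated with IL-1β (1 ng/mL final) for 18 hr at 37 °C; 0.5% DMSO final. Supernatant PGE2 was measured by HTRF against a standard curve; inhibition is relative to vehicle and unstimulated blank wells.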

human mPGES-1 = target: T1, human mPGES-1 (Homo sapiens, UniProt O14684); assay: Evaluation of human mPGES-1 enzyme inhibitory activity (HTRF measurement of PGE2); format: biochemical; details: IC50 value; microsome fraction of CHO-S cells expressing human mPGES-1, PGH2 substrate, PGE2 by HTRF; read-out: humans mPGES-1 enzyme inhibitory activity
T1 construct: made in house; host or cells: Chinese hamster ovary-derived cells (FreeStyle CHO-S), transient transfection of pcDNA3.1(+)/human mPGES-1; microsome fraction
T1 sequence (O14684 1-152): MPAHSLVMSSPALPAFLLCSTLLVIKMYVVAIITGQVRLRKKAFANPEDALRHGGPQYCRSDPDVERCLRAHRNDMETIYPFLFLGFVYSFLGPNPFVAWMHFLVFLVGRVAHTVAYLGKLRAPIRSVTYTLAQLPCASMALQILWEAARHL
Summary of the method: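 Enzyme source was a microsome fraction from CHO-S cells transfected with human mPGES-1, diluted to 5 μg/mL protein in reduced GSH (12.5 mmol/L KPB), preincubated with compound for 10 min at room temperature with 2% final DMSO. Reaction started with PGH2 and run 45 seconds at room temperature. PGE2 measured by HTRF.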

[1] = Homo sapiens, A549, A549 cell, recombinant human IL-1β stimulation, read-out: cell PGE2 production inhibitory activity (IC50 value)
[2] = Homo sapiens, A549, 18 h, IC50 value, A549 cell, recombinant IL-1β 1 ng/mL, 18 hr, PGE2 in supernatant, read-out: cell PGE2 production inhibitory activity
[3] = A549 cell, recombinant human IL-1β stimulation, read-out: cell PGE2 production inhibitory activity (IC50 value)

Row | IC50 (A549 cell; [1]) | IC50 (human mPGES-1) | IC50 (A549 cell; [2]) | IC50 (A549 cell; [3]) | Structure (SMILES)
1 | 19 nM | 1.8 nM | – | – | CC1(c2cccc(-c3nc(O)nc(-c4cc(CNC(=O)C5(C(F)F)CCCCCC5)ccc4Cl)n3)c2)CC1 [Example 122]
2 | – | 3.3 nM | 1.7 nM | – | CC(C)(C)COc1ccc(-c2nc(O)nc(-c3cc(CNC(=O)C(C)(C)C(F)(F)F)ccc3Cl)n2)cn1 [Example 19]
3 | 1.8 nM | 3.2 nM | – | – | CCC[C@H](C)Oc1ccc(-c2nc(O)nc(-c3cc(CNC(=O)C4(C(F)F)CCCCC4)ccc3Cl)n2)cn1 [Example 109]
4 | 8.1 nM | 2.3 nM | – | – | CCCOCCOc1ccc(-c2nc(O)nc(-c3cc(CNC(=O)C4(C(F)(F)F)CCCCC4)ccc3Cl)n2)cn1 [Example 69]
5 | – | 0.7 nM | 79 nM | – | CCOc1ccc(-c2nc(O)nc(-c3cc(CNC(=O)C(C)(C)C(F)(F)F)ccc3Cl)n2)cn1 [Example 27]
6 | 6.6 nM | 1.3 nM | – | – | CCC(CC)(CF)C(=O)NCc1ccc(Cl)c(-c2nc(O)nc(-c3ccc(Cl)c(C(C)C)c3)n2)c1 [Example 115]
7 | 5 nM | 3.6 nM | – | – | CCC[C@H](C)Oc1ccc(-c2nc(O)nc(-c3cc(CNC(=O)C4(CF)CCCCC4)ccc3Cl)n2)cn1 [Example 106]
8 | – | 0.7 nM | 260 nM | – | COc1ccc(-c2nc(O)nc(-c3cc(CNC(=O)C(C)(C)C(F)(F)F)ccc3Cl)n2)cn1 [Example 26]
9 | 43 nM | 0.9 nM | – | – | CC1(c2cccc(-c3nc(O)nc(-c4cc(CNC(=O)C5(CF)CCCCC5)ccc4Cl)n3)c2)CC1 [Example 100]
10 | 24 nM | 3.3 nM | – | – | CC(C)(C)c1cccc(-c2nc(O)nc(-c3cc(CNC(=O)C4(CF)CCCCCC4)ccc3Cl)n2)c1 [Example 112]
11 | – | 0.4 nM | 23 nM | – | CCC(C)(C)C(=O)NCc1ccc(Cl)c(-c2nc(O)nc(-c3cccc(C(C)C)c3)n2)c1 [Example 6]
12 | 43 nM | 1.2 nM | – | – | CC(C)c1cccc(-c2nc(O)nc(-c3cc(CNC(=O)C4(CF)CCCCC4)ccc3Cl)n2)c1 [Example 98]
13 | 7.9 nM | 2.1 nM | – | – | CC(C)c1cc(-c2nc(O)nc(-c3cc(CNC(=O)C4(CF)CCCCC4)ccc3Cl)n2)ccc1Cl [Example 101]
14 | – | 4.5 nM | – | 1.7 nM | CCC[C@H](C)Oc1ccc(-c2nc(O)nc(-c3cc(CNC(=O)C(CC)(OC)C(F)(F)F)ccc3Cl)n2)cn1 (single isomer, unassigned) [Example 145]
15 | – | 1.5 nM | – | 8.4 nM | CCC(OC)(C(=O)NCc1ccc(Cl)c(-c2nc(O)nc(-c3cccc(C4(C)CC4)c3)n2)c1)C(F)(F)F (centres unmarked) [Example 138]
16 | 13 nM | 3.1 nM | – | – | CC(C)c1cc(-c2nc(O)nc(-c3cc(CNC(=O)C4(CF)CCCCCC4)ccc3Cl)n2)ccc1Cl [Example 114]
17 | 56 nM | 1.5 nM | – | – | CC(C)c1cccc(-c2nc(O)nc(-c3cc(CNC(=O)C(C)(C)CF)ccc3Cl)n2)c1 [Example 70]
18 | 6 nM | 2 nM | – | – | CCCCCCOc1ccc(-c2nc(O)nc(-c3cc(CNC(=O)C(C)(C)CF)ccc3Cl)n2)cn1 [Example 84]
19 | – | 0.5 nM | 7.3 nM | – | CC1(c2cccc(-c3nc(O)nc(-c4cc(CNC(=O)C(C)(C)C(F)(F)F)ccc4Cl)n3)c2)CC1 [Example 49, N-(4-chloro-3-{4-hydroxy-6-[3-(1-methylcyclopropyl)phenyl]-1,3,5-triazin-2-yl}benzyl)-3,3,3-trifluoro-2,2-dimethylpropionamide]
20 | – | 1.1 nM | 30 nM | – | CCCCc1cccc(-c2nc(O)nc(-c3cc(CNC(=O)C(C)(C)C(F)(F)F)ccc3Cl)n2)c1 [Example 5]
21 | – | 0.7 nM | 40 nM | – | CCOc1ccc(-c2nc(O)nc(-c3cc(CNC(=O)C4(C(F)(F)F)CCCC4)ccc3Cl)n2)cn1 [Example 32]
22 | 30 nM | 1.3 nM | – | – | CC(C)(C)c1cccc(-c2nc(O)nc(-c3cc(CNC(=O)C4(CF)CCCC4)ccc3Cl)n2)c1 [Example 93]
23 | – | 0.4 nM | 3.7 nM | – | Cc1ccc(-c2nc(O)nc(-c3cc(CNC(=O)C(C)(C)C(F)(F)F)ccc3Cl)n2)cc1C(C)C [Example 53]
24 | 88 nM | 1.3 nM | – | – | CC(C)c1cccc(-c2nc(O)nc(-c3cc(CNC(=O)C(C)(C)CC(F)(F)F)ccc3Cl)n2)c1 [Example 76]

Row | IC50 (A549 cell; [1]) | IC50 (human mPGES-1) | IC50 (A549 cell; [2]) | IC50 (A549 cell; [3]) | Structure (SMILES)
25 | 11 nM | 0.6 nM | – | – | CCOCCCOc1ccc(-c2nc(O)nc(-c3cc(CNC(=O)C4(C(F)(F)F)CCCCC4)ccc3Cl)n2)cn1 [Example 68]
26 | 2.2 nM | 7.2 nM | – | – | CCCCCCOc1ccc(-c2nc(O)nc(-c3cc(CNC(=O)C(CC)(CC)OC)ccc3Cl)n2)cn1 [Example 82]
27 | 4.2 nM | 1.6 nM | – | – | CCC(CC)(C(=O)NCc1ccc(Cl)c(-c2nc(O)nc(-c3cccc(C(C)(C)C)c3)n2)c1)C(F)F [Example 117]
28 | 1.5 nM | 4 nM | – | – | CCC[C@@H](C)Oc1ccc(-c2nc(O)nc(-c3cc(CNC(=O)C(CC)(CC)C(F)F)ccc3Cl)n2)cn1 [Example 123]
29 | – | 0.6 nM | 410 nM | – | CCCCC(C)(C)C(=O)NCc1ccc(Cl)c(-c2nc(O)nc(-c3ccc(OCC)nc3)n2)c1 [Example 51]
30 | 3 nM | 1.8 nM | – | – | CCC(CC)(C(=O)NCc1ccc(Cl)c(-c2nc(O)nc(-c3ccc(Cl)c(C(C)C)c3)n2)c1)C(F)F [Example 119]
31 | – | 1 nM | 68 nM | – | CCCC(C)(C)C(=O)NCc1ccc(Cl)c(-c2nc(O)nc(-c3cccc(C(C)C)c3)n2)c1 [Example 7]
32 | 4 nM | 4.6 nM | – | – | CC(C)(C)c1cccc(-c2nc(O)nc(-c3cc(CNC(=O)C(C)(C(F)(F)F)C(F)(F)F)ccc3Cl)n2)c1 [Example 91]
33 | 1.3 nM | 2.2 nM | – | – | CCC[C@@H](C)Oc1ccc(-c2nc(O)nc(-c3cc(CNC(=O)C4(CF)CCCCC4)ccc3Cl)n2)cn1 [Example 128]
34 | – | 0.8 nM | – | 4.8 nM | CCC(OC)(C(=O)NCc1ccc(Cl)c(-c2nc(O)nc(-c3cccc(C(C)C)c3)n2)c1)C(F)(F)F (single isomer, unassigned) [Example 132]
35 | 17 nM | 0.4 nM | – | – | CCC(CC)(C(=O)NCc1ccc(Cl)c(-c2nc(O)nc(-c3cccc(C4(C)CC4)c3)n2)c1)C(F)F [Example 118]
36 | – | 0.8 nM | 45 nM | – | CC(C)Oc1ccc(-c2nc(O)nc(-c3cc(CNC(=O)C(C)(C)C(F)(F)F)ccc3Cl)n2)cn1 [Example 40]
37 | – | 1.3 nM | 23 nM | – | CC(C)c1cccc(-c2nc(O)nc(-c3cc(CNC(=O)C4(F)CCCC4)ccc3Cl)n2)c1 [Example 41]
38 | – | 21 nM | 1000 nM | – | COCC1(C(=O)NCc2ccc(Cl)c(-c3nc(O)nc(-c4cccc(C(C)C)c4)n3)c2)CC1 [Example 13]
39 | – | 0.4 nM | 34 nM | – | CC(C)c1cccc(-c2nc(O)nc(-c3cc(CNC(=O)C4(C)CCCCC4)ccc3Cl)n2)c1 [Example 16]
40 | – | 0.5 nM | 2.7 nM | – | CC(C)c1cc(-c2nc(O)nc(-c3cc(CNC(=O)C(C)(C)C(F)(F)F)ccc3Cl)n2)ccc1Cl [Example 48, N-{4-chloro-3-[4-(4-chloro-3-isopropylphenyl)-6-hydroxy-1,3,5-triazin-2-yl]benzyl}-3,3,3-trifluoro-2,2-dimethylpropionamide]
41 | 95 nM | 1.8 nM | – | – | CC1(c2cccc(-c3nc(O)nc(-c4cc(CNC(=O)C5(CF)CCCCCC5)ccc4Cl)n3)c2)CC1 [Example 113]
42 | 9.2 nM | 1.2 nM | – | – | CCC[C@@H](C)Oc1ccc(-c2nc(O)nc(-c3cc(CNC(=O)C(C)(C)OC)ccc3Cl)n2)cn1 [Example 78]
43 | 1.6 nM | 3.9 nM | – | – | CCC[C@H](C)Oc1ccc(-c2nc(O)nc(-c3cc(CNC(=O)C(CC)(OC)C(F)(F)F)ccc3Cl)n2)cn1 (single isomer, unassigned) [Example 144]
44 | – | 3.2 nM | 350 nM | – | COCC(C)(C)C(=O)NCc1ccc(Cl)c(-c2nc(O)nc(-c3cccc(C(C)C)c3)n2)c1 [Example 12]
45 | – | 1.1 nM | 8.6 nM | – | CCCOc1ccc(-c2nc(O)nc(-c3cc(CNC(=O)C(C)(C)C(F)(F)F)ccc3Cl)n2)cn1 [Example 2]
46 | 1.2 nM | 3.8 nM | – | – | CCC[C@H](C)Oc1ccc(-c2nc(O)nc(-c3cc(CNC(=O)C(CC)(CC)C(F)F)ccc3Cl)n2)cn1 [Example 130]
47 | – | 2 nM | – | 5.4 nM | CCC(OC)(C(=O)NCc1ccc(Cl)c(-c2nc(O)nc(-c3cccc(C(C)(C)C)c3)n2)c1)C(F)(F)F (centres unmarked) [Example 135]
48 | – | 0.9 nM | 16 nM | – | COC1(C(=O)NCc2ccc(Cl)c(-c3nc(O)nc(-c4cccc(C(C)(C)C)c4)n3)c2)CCCC1 [Example 22]

Row | Structure (SMILES) | IC50 (A549 cell; [1]) | IC50 (human mPGES-1) | IC50 (A549 cell; [2]) | IC50 (A549 cell; [3])
49 | CCC[C@@H](C)Oc1ccc(-c2nc(O)nc(-c3cc(CNC(=O)C(C)(C)C(F)(F)F)ccc3Cl)n2)cn1 [Example 25, N-(4-chloro-3-{4-hydroxy-6-[6-((R)-1-methylbutoxy)pyridin-3-yl]-1,3,5-triazin-2-yl}benzyl)-3,3,3-trifluoro-2,2-dimethylpropionamide] | – | 3.1 nM | 2.9 nM | –
